NC(=O)Cc1ccc(O)cc1
solubility (mole fraction)
Conditions	278.15 K	283.15 K	288.15 K	293.15 K	298.15 K	303.15 K	308.15 K	313.15 K	318.15 K	323.15 K
in acetonitrile	0.00096	0.00141	0.00188	0.00249	0.00305	0.00376	0.00463	0.00573	0.00705	0.00869
in ethanol	0.00381	0.00459	0.00534	0.00638	0.00752	0.00902	0.0107	0.0126	0.015	0.0179
in ethyl acetate	0.0017	0.00196	0.00238	0.00297	0.00363	0.00455	0.00557	0.00663	0.0078	0.00932
in isopropanol	0.00319	0.00379	0.0046	0.00552	0.00684	0.00852	0.0102	0.0122	0.0142	0.0164
in methanol	0.0075	0.00824	0.00951	0.0111	0.0128	0.0148	0.0169	0.0192	0.0218	0.0246
in methyl acetate	0.0032	0.00359	0.00415	0.00486	0.00577	0.0068	0.00779	0.00908	0.0103	0.0118
in n-butanol	0.00284	0.00346	0.00428	0.00508	0.00642	0.00754	0.00899	0.0106	0.0125	0.0144
in n-butyl acetate	0.00269	0.003	0.00345	0.0041	0.00491	0.00587	0.00694	0.00812	0.00935	0.0105
in n-heptane	0.00061	0.00087	0.00111	0.00145	0.00194	0.00253	0.00329	0.00418	0.00509	0.00627
in n-hexane	0.00032	0.00053	0.00082	0.00116	0.00151	0.00205	0.00263	0.00343	0.00438	0.0056
in n-propanol	0.00215	0.00245	0.00292	0.0035	0.00424	0.0052	0.00629	0.00734	0.00868	0.01
in water	0.00096	0.00141	0.00188	0.00249	0.00305	0.00376	0.00463	0.00573	0.00705	0.00869

Source: BigSolDB 2.1
